Test results as given in publication PMC6857856, “Characterization of two thermophilic cellulases from Talaromyces leycettanus JCM12802 and their synergistic action on cellulose hydrolysis” (PLoS ONE, 2019).

Biological target: T1, TlCel5A (Evansstolkia leycettana, UniProt A0A3G5ECP2)
T1 construct: mature protein, 18-residue signal peptide removed (precursor 409 residues); catalytic domain, linker, C-terminal CBM; pPIC9, secreted from Pichia pastoris GS115, purified
Experiment: HPAEC analysis of hydrolysis products
Assay type: biochemical
Conditions: 60 °C; 200 μg substrate in 1 mL, 0.05 U enzyme

T1 sequence (A0A3G5ECP2 19-409): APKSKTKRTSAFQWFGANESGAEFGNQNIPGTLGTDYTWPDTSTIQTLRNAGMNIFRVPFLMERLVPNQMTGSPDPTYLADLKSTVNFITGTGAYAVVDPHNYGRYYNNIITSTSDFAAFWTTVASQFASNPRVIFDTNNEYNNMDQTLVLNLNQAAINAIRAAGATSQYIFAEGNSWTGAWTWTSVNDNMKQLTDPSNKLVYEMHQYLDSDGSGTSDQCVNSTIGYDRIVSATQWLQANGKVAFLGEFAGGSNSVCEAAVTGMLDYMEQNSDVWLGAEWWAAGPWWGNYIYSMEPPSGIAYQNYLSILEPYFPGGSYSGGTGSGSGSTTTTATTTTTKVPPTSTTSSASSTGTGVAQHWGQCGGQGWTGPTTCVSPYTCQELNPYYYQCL

Row | Structure (SMILES) | HPAEC analysis of hydrolysis products
1 | OC[C@H]1O[C@@H](O[C@H]2[C@H](O)[C@@H](O)[C@H](O[C@H]3[C@H](O)[C@@H](O)[C@H](O[C@H]4[C@H](O)[C@@H](O)[C@H](O[C@H]5[C@H](O)[C@@H](O)C(O)O[C@@H]5CO)O[C@@H]4CO)O[C@@H]3CO)O[C@@H]2CO)[C@H](O)[C@@H](O)[C@@H]1O (some centres unmarked) [cellopentaose] | cleaved cellopentaose into mainly cellobiose and cellotriose and low amounts of cellotetraose
2 | OC[C@H]1O[C@@H](O[C@H]2[C@H](O)[C@@H](O)[C@H](O[C@H]3[C@H](O)[C@@H](O)[C@H](O[C@H]4[C@H](O)[C@@H](O)[C@H](O[C@H]5[C@H](O)[C@@H](O)[C@H](O[C@H]6[C@H](O)[C@@H](O)C(O)O[C@@H]6CO)O[C@@H]5CO)O[C@@H]4CO)O[C@@H]3CO)O[C@@H]2CO)[C@H](O)[C@@H](O)[C@@H]1O (some centres unmarked) [cellohexaose] | cellohexaose into cellobiose, cellotriose, cellotetraose and cellopentaose
